Tests used:
Assay in all cases: Cell panel screen (CellTiter-Glo)
Assay type in all cases: cell-based, human
NCI-H2347 = NCI-H2347 (Lung), 20 micromolar, 72 hrs
In short: (§1)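 Single-dose 20 μM (final), 72 h exposure; DMSO vehicle controls. Luminescence after 10-min reagent incubation → % growth inhibition = (untreated − treated)/(untreated − no-cell background) × 100.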

NCI-H28 = NCI-H28 (Lung), 20 micromolar, 72 hrs
In short: as §1

M059J = M059J (Brain), 20 micromolar, 72 hrs
In short: as §1

T98G = T98G (Brain), 20 micromolar, 72 hrs
In short: as §1

MSTO-211-H = MSTO-211-H (Lung), 20 micromolar, 72 hrs
In short: as §1

A704 = A704 (Kidney), 20 micromolar, 72 hrs
In short: as §1

T47D = T47D (Breast), 20 micromolar, 72 hrs
In short: as §1

CW-2 = CW-2 (Colon), 20 micromolar, 72 hrs
In short: as §1

RL95 = RL95 (Uterus), 20 micromolar, 72 hrs
In short: as §1

NCI-H1770 = NCI-H1770 (Lung), 20 micromolar, 72 hrs
In short: as §1

Bel-7402 = Bel-7402 (Liver), 20 micromolar, 72 hrs
In short: as §1

NCI-H2405 = NCI-H2405 (Lung), 20 micromolar, 72 hrs
In short: as §1

C8166 = C8166 (Leukemia), 20 micromolar, 72 hrs
In short: as §1

J82 = J82 (Urinary bladder), 20 micromolar, 72 hrs
In short: as §1

C3A = C3A (Liver), 20 micromolar, 72 hrs
In short: as §1

NCI-H524 = NCI-H524 (Lung), 20 micromolar, 72 hrs
In short: as §1

A498 = A498 (listed under Lung), 20 micromolar, 72 hrs
In short: as §1

BT-474 = BT-474 (Breast), 20 micromolar, 72 hrs
In short: as §1

NCI-H1623 = NCI-H1623 (Lung), 20 micromolar, 72 hrs
In short: as §1

ZR-75-30 = ZR-75-30 (Breast), 20 micromolar, 72 hrs
In short: as §1

ChaGo-K-1 = ChaGo-K-1 (Lung), 20 micromolar, 72 hrs
In short: as §1

HCC1937 = HCC1937 (Breast), 20 micromolar, 72 hrs
In short: as §1

HT-1197 = HT-1197 (Urinary bladder), 20 micromolar, 72 hrs
In short: as §1

HCC1599 = HCC1599 (Breast), 20 micromolar, 72 hrs
In short: as §1

HGC-27 = HGC-27 (Stomach), 20 micromolar, 72 hrs
In short: as §1

TCCSUP = TCCSUP (Urinary bladder), 20 micromolar, 72 hrs
In short: as §1

Colo 205 = settings: Colo 205, 20 micromolar, 72 hrs
In short: as §1

HCC1569 = HCC1569 (Breast), 20 micromolar, 72 hrs
In short: as §1

CCF-STTG1 = CCF-STTG1 (Brain), 20 micromolar, 72 hrs
In short: as §1

HPAF-II = HPAF-II (Pancreas), 20 micromolar, 72 hrs
In short: as §1

BT-549 = BT-549 (Breast), 20 micromolar, 72 hrs
In short: as §1

SW13 = SW13 (Adrenal gland), 20 micromolar, 72 hrs
In short: as §1

Panc 03.27 = Panc 03.27 (Pancreas), 20 micromolar, 72 hrs
In short: as §1

HEC-1-A = HEC-1-A (Uterus), 20 micromolar, 72 hrs
In short: as §1

HCC1395 = HCC1395 (Breast), 20 micromolar, 72 hrs
In short: as §1

NCI-H1694 = NCI-H1694 (Lung), 20 micromolar, 72 hrs
In short: as §1

## CC(C)=CCC[C@@]1(C)C=Cc2c(O)c3c(c(CC=C(C)C)c2O1)O[C@]12C(=C[C@@H]4C[C@H]1C(C)(C)O[C@@]2(C/C=C(/C)C(=O)O)C4=O)C3=O [GB11]
NCI-H2347
  Percent Inhibition: 98%
NCI-H28
  Percent Inhibition: 99%
M059J
  Percent Inhibition: 98%
T98G
  Percent Inhibition: 99%
MSTO-211-H
  Percent Inhibition: 98%
A704
  Percent Inhibition: 98%
T47D
  Percent Inhibition: 99%
CW-2
  Percent Inhibition: 98%
RL95
  Percent Inhibition: 99%
NCI-H1770
  Percent Inhibition: 98%
Bel-7402
  Percent Inhibition: 98%
NCI-H2405
  Percent Inhibition: 98%
C8166
  Percent Inhibition: 99%
J82
  Percent Inhibition: 98%
C3A
  Percent Inhibition: 98%
NCI-H524
  Percent Inhibition: 97%
A498
  Percent Inhibition: 98%
BT-474
  Percent Inhibition: 98%
NCI-H1623
  Percent Inhibition: 98%
ZR-75-30
  Percent Inhibition: 99%
ChaGo-K-1
  Percent Inhibition: 98%
HCC1937
  Percent Inhibition: 98%
HT-1197
  Percent Inhibition: 98%
HCC1599
  Percent Inhibition: 99%
HGC-27
  Percent Inhibition: 98%
TCCSUP
  Percent Inhibition: 99%
Colo 205
  Percent Inhibition: 98%
HCC1569
  Percent Inhibition: 99%
CCF-STTG1
  Percent Inhibition: 98%
HPAF-II
  Percent Inhibition: 98%
BT-549
  Percent Inhibition: 99%
SW13
  Percent Inhibition: 98%
Panc 03.27
  Percent Inhibition: 99%
HEC-1-A
  Percent Inhibition: 99%
HCC1395
  Percent Inhibition: 98%
NCI-H1694
  Percent Inhibition: 99%

## CC1(C)C=Cc2cc3c(=O)c4c(O)cc(O)cc4oc3c(O)c2O1 [Go-11]
NCI-H2347
  Percent Inhibition: 10%
NCI-H28
  Percent Inhibition: 33%
M059J
  Percent Inhibition: 78%
T98G
  Percent Inhibition: 68%
MSTO-211-H
  Percent Inhibition: 66%
A704
  Percent Inhibition: 24%
T47D
  Percent Inhibition: 35%
CW-2
  Percent Inhibition: 61%
RL95
  Percent Inhibition: 72%
NCI-H1770
  Percent Inhibition: 38%
Bel-7402
  Percent Inhibition: 16%
NCI-H2405
  Percent Inhibition: 3%
C8166
  Percent Inhibition: 71%
J82
  Percent Inhibition: 52%
C3A
  Percent Inhibition: 19%
NCI-H524
  Percent Inhibition: 83%
A498
  Percent Inhibition: 37%
BT-474
  Percent Inhibition: 31%
NCI-H1623
  Percent Inhibition: -10%
ZR-75-30
  Percent Inhibition: 62%
ChaGo-K-1
  Percent Inhibition: 75%
HCC1937
  Percent Inhibition: 21%
HT-1197
  Percent Inhibition: 39%
HCC1599
  Percent Inhibition: 49%
HGC-27
  Percent Inhibition: 54%
TCCSUP
  Percent Inhibition: 43%
Colo 205
  Percent Inhibition: 11%
HCC1569
  Percent Inhibition: 41%
CCF-STTG1
  Percent Inhibition: 44%
HPAF-II
  Percent Inhibition: 18%
BT-549
  Percent Inhibition: 46%
SW13
  Percent Inhibition: 24%
Panc 03.27
  Percent Inhibition: 39%
HEC-1-A
  Percent Inhibition: 38%
HCC1395
  Percent Inhibition: 68%
NCI-H1694
  Percent Inhibition: 73%

## CCOC1C2C(=O)c3c(O)c4c(c(CC=C(C)C)c3O[C@@]23[C@H]2C[C@@H]1C(=O)[C@]3(C/C=C(/C)C(=O)O)OC2(C)C)OC(C)(CCC=C(C)C)C=C4 (stereo partly drawn) [GB19]
NCI-H2347
  Percent Inhibition: 98%
NCI-H28
  Percent Inhibition: 99%
M059J
  Percent Inhibition: 99%
T98G
  Percent Inhibition: 99%
MSTO-211-H
  Percent Inhibition: 99%
A704
  Percent Inhibition: 99%
T47D
  Percent Inhibition: 99%
CW-2
  Percent Inhibition: 99%
RL95
  Percent Inhibition: 99%
NCI-H1770
  Percent Inhibition: 99%
Bel-7402
  Percent Inhibition: 99%
NCI-H2405
  Percent Inhibition: 99%
C8166
  Percent Inhibition: 99%
J82
  Percent Inhibition: 99%
C3A
  Percent Inhibition: 99%
NCI-H524
  Percent Inhibition: 99%
A498
  Percent Inhibition: 99%
BT-474
  Percent Inhibition: 99%
NCI-H1623
  Percent Inhibition: 99%
ZR-75-30
  Percent Inhibition: 99%
ChaGo-K-1
  Percent Inhibition: 99%
HCC1937
  Percent Inhibition: 99%
HT-1197
  Percent Inhibition: 99%
HCC1599
  Percent Inhibition: 99%
HGC-27
  Percent Inhibition: 99%
TCCSUP
  Percent Inhibition: 99%
Colo 205
  Percent Inhibition: 99%
HCC1569
  Percent Inhibition: 99%
CCF-STTG1
  Percent Inhibition: 99%
HPAF-II
  Percent Inhibition: 98%
BT-549
  Percent Inhibition: 99%
SW13
  Percent Inhibition: 99%
Panc 03.27
  Percent Inhibition: 99%
HEC-1-A
  Percent Inhibition: 99%
HCC1395
  Percent Inhibition: 99%
NCI-H1694
  Percent Inhibition: 99%

From paper PMC4450297, “Screening Active Compounds from Garcinia Species Native to China Reveals Novel Compounds Targeting the STAT/JAK Signaling Pathway” (BioMed Research International, 2015)
